Literature values as cited in patent publication US11607129B2, “Combined positron emission tomography (PET)-electron paramagnetic resonance (EPR) imaging device” (West Virginia University, priority 2018, dated 2023).

Test system: mouse
Details: as confirmed by recent cytotoxicity studies; probe hydrophilic, remains extracellular

Substance: phosphonated triarylmethyl radicals [pTAM]
- toxicity to the mouse: minimal toxicity
